Measurements taken from patent publication US20080039422A1, “Vitamin B12-Containing Compositions and Methods of Use” (Transition Therapeutics Inc., priority 2004, published 2008).

Columns and labels:
[1] = Methylcobalamin-containing solutions; type: physicochemical
Method: A variety of solutions containing methylcobalamin (Me-Cbl) were tested. In one series of experiments, solutions containing ethanol, propylene glycol, or both ethanol and propylene glycol were challenged with 20 mg/ml Me-Cbl. In another series of experiments, the same solutions were challenged with 50 mg/ml Me-Cbl. The conditions were the same as those described for CN-Cbl. In both series, the excipients included: (a) 15% ethanol; (b) 20% ethanol; (c) 20% propylene glycol; (d) 40% propylene glycol; (e) 15% ethanol and 20% propylene glycol; and (f) 20% ethanol and 40% propylene glycol. Following suitable dilution, the absorbance at A340 was measured on Day 0, Day 1, and Day 2 (Table 7).

[2] = Methylcobalamin-containing solutions; type: physicochemical; remark: listed apart in the source

C/C1=C2/[N-][C@H]([C@H](CC(N)=O)[C@@]2(C)CCC(=O)NC[C@H](C)OP(=O)([O-])O[C@H]2[C@@H](O)[C@@H](n3cnc4cc(C)c(C)cc43)O[C@@H]2CO)[C@]2(C)N=C(/C(C)=C3N=C(/C=C4N=C1[C@@H](CCC(N)=O)C\4(C)C)[C@@H](CCC(N)=O)[C@]\3(C)CC(N)=O)[C@@H](CCC(N)=O)[C@]2(C)CC(N)=O.[CH3-].[Co+3] [Me-Cbl, methylcobalamin]
Conc of Me-Cbl ([1]; challenge 20 mg/mL, ethanol 0%, PG 20%, Day 0): 23610 µg/mL
Conc of Me-Cbl ([1]; challenge 20 mg/mL, ethanol 0%, PG 20%, Day 0 reading): 17560 µM
Conc of Me-Cbl ([1]; challenge 20 mg/mL, ethanol 0%, PG 20%, Day 1): 24020 µg/mL
Conc of Me-Cbl ([1]; challenge 20 mg/mL, ethanol 0%, PG 40%, Day 0 reading): 17800 µM
Conc of Me-Cbl ([1]; challenge 20 mg/mL, ethanol 20%, PG 40%, Day 0): 22800 µg/mL
Conc of Me-Cbl ([1]; challenge 50 mg/mL, ethanol 20%, PG 0%, Day 1): 10470 µg/mL
Conc of Me-Cbl ([1]; challenge 50 mg/mL, ethanol 20%, PG 40%, Day 0): 57620 µg/mL
Conc of Me-Cbl ([1]; challenge 50 mg/mL, ethanol 20%, PG 40%, Day 0 reading): 42860 µM
Conc of Me-Cbl ([2]; challenge 20 mg/mL, ethanol 0%, PG 0%, Day 0): 17180 µg/mL
Conc of Me-Cbl ([2]; challenge 20 mg/mL, ethanol 0%, PG 0%, Day 0 reading): 12780 µM
Conc of Me-Cbl ([2]; challenge 20 mg/mL, ethanol 0%, PG 0%, Day 1): 14030 µg/mL
Conc of Me-Cbl ([2]; challenge 20 mg/mL, ethanol 0%, PG 0%, Day 3): 13180 µg/mL
Conc of Me-Cbl ([2]; challenge 20 mg/mL, ethanol 0%, PG 20%, Day 3): 23370 µg/mL
Conc of Me-Cbl ([2]; challenge 20 mg/mL, ethanol 0%, PG 40%, Day 0): 23940 µg/mL
Conc of Me-Cbl ([2]; challenge 20 mg/mL, ethanol 0%, PG 40%, Day 1): 24340 µg/mL
Conc of Me-Cbl ([2]; challenge 20 mg/mL, ethanol 0%, PG 40%, Day 3): 24500 µg/mL
Conc of Me-Cbl ([2]; challenge 20 mg/mL, ethanol 15%, PG 0%, Day 0): 22800 µg/mL
Conc of Me-Cbl ([2]; challenge 20 mg/mL, ethanol 15%, PG 0%, Day 0 reading): 16960 µM
Conc of Me-Cbl ([2]; challenge 20 mg/mL, ethanol 15%, PG 0%, Day 1): 12530 µg/mL
Conc of Me-Cbl ([2]; challenge 20 mg/mL, ethanol 15%, PG 0%, Day 3): 11120 µg/mL
Conc of Me-Cbl ([2]; challenge 20 mg/mL, ethanol 15%, PG 20%, Day 0): 22720 µg/mL
Conc of Me-Cbl ([2]; challenge 20 mg/mL, ethanol 15%, PG 20%, Day 0 reading): 16900 µM
Conc of Me-Cbl ([2]; challenge 20 mg/mL, ethanol 15%, PG 20%, Day 1): 23450 µg/mL
Conc of Me-Cbl ([2]; challenge 20 mg/mL, ethanol 15%, PG 20%, Day 3): 21910 µg/mL
Conc of Me-Cbl ([2]; challenge 20 mg/mL, ethanol 20%, PG 0%, Day 0): 23130 µg/mL
Conc of Me-Cbl ([2]; challenge 20 mg/mL, ethanol 20%, PG 0%, Day 0 reading): 17200 µM
Conc of Me-Cbl ([2]; challenge 20 mg/mL, ethanol 20%, PG 0%, Day 1): 9180 µg/mL
Conc of Me-Cbl ([2]; challenge 20 mg/mL, ethanol 20%, PG 0%, Day 3): 9180 µg/mL
Conc of Me-Cbl ([2]; challenge 20 mg/mL, ethanol 20%, PG 40%, Day 0 reading): 16960 µM
Conc of Me-Cbl ([2]; challenge 20 mg/mL, ethanol 20%, PG 40%, Day 1): 23860 µg/mL
Conc of Me-Cbl ([2]; challenge 20 mg/mL, ethanol 20%, PG 40%, Day 3): 24100 µg/mL
Conc of Me-Cbl ([2]; challenge 50 mg/mL, ethanol 0%, PG 0%, Day 0): 12660 µg/mL
Conc of Me-Cbl ([2]; challenge 50 mg/mL, ethanol 0%, PG 0%, Day 0 reading): 9410 µM
Conc of Me-Cbl ([2]; challenge 50 mg/mL, ethanol 0%, PG 0%, Day 1): 12860 µg/mL
Conc of Me-Cbl ([2]; challenge 50 mg/mL, ethanol 0%, PG 0%, Day 3): 12860 µg/mL
Conc of Me-Cbl ([2]; challenge 50 mg/mL, ethanol 0%, PG 20%, Day 0): 58220 µg/mL
Conc of Me-Cbl ([2]; challenge 50 mg/mL, ethanol 0%, PG 20%, Day 0 reading): 43310 µM
Conc of Me-Cbl ([2]; challenge 50 mg/mL, ethanol 0%, PG 20%, Day 1): 17990 µg/mL
Conc of Me-Cbl ([2]; challenge 50 mg/mL, ethanol 0%, PG 20%, Day 3): 17790 µg/mL
Conc of Me-Cbl ([2]; challenge 50 mg/mL, ethanol 0%, PG 40%, Day 0): 57210 µg/mL
Conc of Me-Cbl ([2]; challenge 50 mg/mL, ethanol 0%, PG 40%, Day 0 reading): 42560 µM
Conc of Me-Cbl ([2]; challenge 50 mg/mL, ethanol 0%, PG 40%, Day 1): 23210 µg/mL
Conc of Me-Cbl ([2]; challenge 50 mg/mL, ethanol 0%, PG 40%, Day 3): 22160 µg/mL
Conc of Me-Cbl ([2]; challenge 50 mg/mL, ethanol 15%, PG 0%, Day 0): 56610 µg/mL
Conc of Me-Cbl ([2]; challenge 50 mg/mL, ethanol 15%, PG 0%, Day 0 reading): 42110 µM
Conc of Me-Cbl ([2]; challenge 50 mg/mL, ethanol 15%, PG 0%, Day 1): 11930 µg/mL
Conc of Me-Cbl ([2]; challenge 50 mg/mL, ethanol 15%, PG 0%, Day 3): 11320 µg/mL
Conc of Me-Cbl ([2]; challenge 50 mg/mL, ethanol 15%, PG 20%, Day 0): 56610 µg/mL
Conc of Me-Cbl ([2]; challenge 50 mg/mL, ethanol 15%, PG 20%, Day 0 reading): 42110 µM
Conc of Me-Cbl ([2]; challenge 50 mg/mL, ethanol 15%, PG 20%, Day 1): 15490 µg/mL
Conc of Me-Cbl ([2]; challenge 50 mg/mL, ethanol 15%, PG 20%, Day 3): 15450 µg/mL
Conc of Me-Cbl ([2]; challenge 50 mg/mL, ethanol 20%, PG 0%, Day 0): 58020 µg/mL
Conc of Me-Cbl ([2]; challenge 50 mg/mL, ethanol 20%, PG 0%, Day 0 reading): 43160 µM
Conc of Me-Cbl ([2]; challenge 50 mg/mL, ethanol 20%, PG 0%, Day 3): 10350 µg/mL
Conc of Me-Cbl ([2]; challenge 50 mg/mL, ethanol 20%, PG 40%, Day 1): 51150 µg/mL
Conc of Me-Cbl ([2]; challenge 50 mg/mL, ethanol 20%, PG 40%, Day 3): 48120 µg/mL
